Here are results for one molecule from patent publication US20220175777A1, “Inhibitors of Multidrug Resistance Transporter P-Glycoprotein” (Southern Methodist University, priority 2014, published 2022).

In experiment [1] the target is T1, Cysteineless Mouse MDR3 P-glycoprotein (Mus musculus, UniProt P21447, C1070A/C1121A/C1223A/C133A/C427A/C638A/C669A/C713A/C952A).
T1 construct: made in house; host or cells: Pichia pastoris
The experiment can be described thus: SL-ATP binding to P-gp by ESR spectroscopy. Particulars: 50 microM inhibitor compound. The procedure, abridged: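 Cysteine-free mouse P-gp (30–50 microM) incubated with 50 microM inhibitor, then titrated with spin-labelled ATP analogue SL-ATP. Bound SL-ATP calculated from high-field ESR signal of free SL-ATP versus no-protein control, giving binding stoichiometry and affinity; at least 3 studies on 3–5 P-gp preparations.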

The target in experiment [2] is T1, Cysteineless Mouse MDR3 P-glycoprotein. The experiment can be described thus: ATP hydrolysis by purified P-glycoprotein, basal and verapamil-stimulated. Format: biochemical. Summed up:
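Cysteine-less mouse MDR3 P-gp (all Cys→Ala), expressed in Pichia pastoris and stabilised with phosphatidyl choline, was pre-incubated with compounds at 37 °C. ATP hydrolysis (2 mM ATP final, 20 min) measured via pyruvate kinase/lactate dehydrogenase-coupled NADH oxidation, with and without verapamil stimulation.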

For experiment [3], the system named is A2780. In words: Hyper-sensitization of ovarian cancer cells to doxorubicin. Format: cell-based. Particulars: not chemotherapy resistant A2780. The text has this:
Hyper-sensitization of cancers to chemotherapeutics. […] The sensitivity of normal, not chemotherapy resistant A2780 ovarian cancer cell lines to doxorubicin was increased by several orders of magnitude in these assays.

Experiment [4] deals with DU145. In words: Intrinsic toxicity, MTT survival. Format: cell-based. Particulars: Homo sapiens, DU-145, 48 hours, ± standard error. The procedure:
Percent survival determined by MTT assay calculated relative to cells treated with equal volume DMSO vehicle and represent the mean±SEM from 2-4 separate studies, each study performed in triplicate wells.
The intrinsic in vitro toxicities of identified compounds were evaluated to determine their potential therapeutic window. This was assessed in a noncancerous cell line (HFL1) and the human prostate cancer cell lines DU145 and the MDR sub-line DU145TxR.

The test system of experiment [5] is DU145TXR. The experiment can be described thus: Dose dependent sensitization of MDR cell line to paclitaxel (MTT). Particulars: 25 μM compound. Format: cell-based, human. The procedure:
FIGS. 6A to 6C show the dose dependent sensitization of MDR prostate cancer cell line DU145TxR. […] For reference, the DU145TxR (closed circle) and DU145 (open circle) incubated with paclitaxel only are also included. Values are mean±SEM from at least 2 separate experiments performed in triplicate wells. The data were normalized to the intrinsic toxicities as determined in studies from FIGS. 5A to 5C of each of the compounds for each of the corresponding concentrations.
Dose Dependent Sensitization of MDR Prostate Cancer Cell Line: To determine the degree to which the MDR prostate cancer cell line DU145TxR could be sensitized to paclitaxel the inventors determined cell survival at increasing concentrations of paclitaxel in the presence of three concentrations of P-gp inhibitors. FIGS. 6A, 6B and 6C show the survival of DU145TxR at increasing concentration of paclitaxel in the presence of 5 μM, 10 μM and 25 μM of the experimental compounds, respectively. The open circles represent the parental DU145 cell line in the presence of paclitaxel without addition of any inhibitor compound. The closed circles represent the survival of the multidrug resistant DU145TxR in the presence of paclitaxel alone. […] At that concentration over 10-fold increase in paclitaxel sensitivity in DU145TxR is observed compared to DU145TxR without P-gp inhibitors. Doubling the concentration of the compounds to 10 μM approximately doubled the DU145TxR sensitivity to paclitaxel.

For experiment [6], the system named is DU145-TxR. In words: Re-sensitization to Paclitaxel or Doxorubicin at 25 μM compound (MTT). Format: cell-based, human. Particulars: 48 hours. The procedure: FIGS. 3A-3B are plots that show an example of the re-sensitization of a multidrug resistant prostate cancer cell line to two different chemotherapeutics using the prostate cancer derived cell line, DU145 and the multidrug-resistant variant, DU145-TxR. […] Cell viability was measured by the MTT (3-(4,5-dimethylthiazol-2-yl)-2,5-diphenyl tetrazolium bromide assay conducted as described previously. After 48 hours of treatment with Paclitaxel or Doxorubicin alone or in the presence of 25 μM compound 29, 34, or 45 media was removed and cells were washed twice with phosphate buffered saline (PBS) and MTT assay was conducted 24 hours later. Data expressed as mean±SEM.

SMILES strings stand for the structures.

T1 sequence (P21447 whole entry C133A/C427A/C638A/C669A/C713A/C952A/C1070A/C1121A/C1223A): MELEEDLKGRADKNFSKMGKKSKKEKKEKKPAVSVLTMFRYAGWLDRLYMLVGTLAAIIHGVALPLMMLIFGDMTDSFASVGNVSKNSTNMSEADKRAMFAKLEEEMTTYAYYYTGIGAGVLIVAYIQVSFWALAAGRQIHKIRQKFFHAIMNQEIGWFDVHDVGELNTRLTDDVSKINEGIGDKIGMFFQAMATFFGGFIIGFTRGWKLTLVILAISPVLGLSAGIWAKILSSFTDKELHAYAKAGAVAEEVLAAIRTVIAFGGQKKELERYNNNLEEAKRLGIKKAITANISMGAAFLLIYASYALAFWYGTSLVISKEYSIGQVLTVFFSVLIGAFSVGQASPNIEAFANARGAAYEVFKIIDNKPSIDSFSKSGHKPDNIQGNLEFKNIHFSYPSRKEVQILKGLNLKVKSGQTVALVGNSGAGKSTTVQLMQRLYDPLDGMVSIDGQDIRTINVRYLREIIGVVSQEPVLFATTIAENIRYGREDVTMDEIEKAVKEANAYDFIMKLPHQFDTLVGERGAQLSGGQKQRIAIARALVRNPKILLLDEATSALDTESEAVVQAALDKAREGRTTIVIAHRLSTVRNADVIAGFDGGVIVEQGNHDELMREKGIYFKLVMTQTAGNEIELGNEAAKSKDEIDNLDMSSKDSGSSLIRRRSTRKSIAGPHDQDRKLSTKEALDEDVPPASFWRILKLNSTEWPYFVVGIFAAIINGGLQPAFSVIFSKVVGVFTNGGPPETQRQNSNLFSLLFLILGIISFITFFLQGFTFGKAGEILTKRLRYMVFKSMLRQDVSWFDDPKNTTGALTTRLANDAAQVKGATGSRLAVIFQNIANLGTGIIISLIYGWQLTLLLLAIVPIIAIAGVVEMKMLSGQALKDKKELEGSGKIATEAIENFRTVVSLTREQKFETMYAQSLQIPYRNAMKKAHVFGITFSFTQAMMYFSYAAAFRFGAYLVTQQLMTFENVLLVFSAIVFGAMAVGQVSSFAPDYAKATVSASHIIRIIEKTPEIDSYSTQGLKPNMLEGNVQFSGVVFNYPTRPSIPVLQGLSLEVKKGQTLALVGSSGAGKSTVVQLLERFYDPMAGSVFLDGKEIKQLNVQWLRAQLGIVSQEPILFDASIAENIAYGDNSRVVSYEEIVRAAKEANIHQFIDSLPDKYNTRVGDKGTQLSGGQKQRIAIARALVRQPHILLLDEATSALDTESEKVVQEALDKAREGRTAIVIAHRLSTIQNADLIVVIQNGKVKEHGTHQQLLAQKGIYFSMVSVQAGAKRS

Broadly, the IC50 is the concentration at which inhibition is half-maximal. A high value points to lower potency. For `Cc1cc(C)c(-c2cc(NC(=O)CSc3n[nH]c(C4CC4)n3)n(-c3ccccc3)n2)cc1C` [SMU-29, 2-[(5-cyclopropyl-1H-1,2,4-triazol-3-yl)sulfanyl]-N-[2-phenyl-5-(2,4,5-trimethylphenyl)pyrazol-3-yl]acetamide], in experiment [1], the “Effect on SL-ATP binding” value was “decreased the SL-ATP binding affinities”. The “Effect on stimulated ATPase” value in experiment [2] (in the presence of verapamil) is listed as “significantly inhibit”. In addition, the “Stimulated ATPase (% of DMSO)” value in experiment [2] (in the presence of verapamil, ± standard deviation) was 49 ± 2 % of DMSO. Besides, the “Basal ATPase (% of DMSO)” value in experiment [2] (without added transport substrate, ± standard deviation) is 95 ± 11 % of DMSO. Further, the Sensitivity to doxorubicin entry in experiment [3] was “hyper-sensitized”. In experiment [4], this molecule had an IC50 of 33.4 ± 0.01 µM. Moreover, the Sensitization to paclitaxel in experiment [5] came out at 800 fold. Further, in experiment [6], the “Chemotherapeutic sensitivity of MDR cell line (Paclitaxel or Doxorubicin)” value was “restores chemotherapeutic sensitivity”.
